Starred links: 1 amine or outer side, 2 acyl side, 3 side chain; linkers in the order of their positions; H or OH if unused. Non-standard residues stand in square brackets, D forms with d. Residues, ends and D or L forms follow the SMILES beside them. *: point of attachment. Dolaproine = CO[C@@H]([C@@H]1CCCN1)[C@@H](C)C(=O)O; Hexanoyl(6-maleimido) = O=C1C=CC(=O)N1CCCCCC(=O)*; Dil = CC[C@H](C)[C@H](NC)[C@@H](CC(=O)O)OC; PABC = O=C(OCc1ccc(N[*:1])cc1)[*:2]; X1 = C[C@@H](N*)[C@@H](O)c1ccccc1; Cit = NC(=O)NCCC[C@H](N)C(=O)O; NMeV = CN[C@H](C(=O)O)C(C)C
Assays:
Test in all cases: In vitro cell proliferation, CellTiter-Glo, 5 days
Format in all cases: cell-based
Details in all cases: free linker-drug (without antibody)
[1] = system: Parental UACC-257X2.2 cells
Experimental: (§1) In vitro cell proliferation of the cell lines in the presence of the immunoconjugates was assessed. Cells were plated at 1,500 cells per well in 50 μL of normal growth medium in 96-well clear-bottom plates. Twenty-four hours later, an additional 50 μL of culture medium with serial dilutions of immunoconjugates (ch5E9-vc-MMAE or control anti-gD-vc-MMAE) were added to triplicate wells. Five days later, cell survival was determined using CellTiter-Glo Luminescent Cell Viability Reagent (G7572, Promega Corporation, Madison, Wis.) using an EnVision 2101 Mutilabel Reader (Perkin-Elmer, Waltham, Mass.).

[2] = system: In vivo-derived resistant UACC-257X2.2 cells
Experimental: For resistance developed in vivo, NCr nude mice (Taconic, Hudson, N.Y.) were inoculated subcutaneously in the dorsal right flank with 5 million UACC-257X2.2 cells in HBSS with Matrigel. UACC-257X2.2 cells are derived from UACC-257 cells (National Cancer Institute) and optimized for growth in vivo as follows. UACC-257 cells were injected subcutaneously in the right flank of female NCr nude mice to induce tumor growth. One tumor was harvested and grown in vitro (referred to as UACC-257X1.2 cell line). The UACC-257X1.2 line was injected again subcutaneously in the right flank of female NCr nude mice to improve the growth of the cell line in vivo. A tumor from the second injection round was collected and again adapted for in vitro growth to generate UACC-257X2.2.
Ten mice inoculated with UACC-257X2.2 cells were dosed with 3 mg/kg hu5E9.v1-MC-vc-PAB-MMAE intravenously on day 0. […]
In vitro cell proliferation of the cell lines in the presence of the immunoconjugates was assessed. […] Five days later, cell survival was determined using CellTiter-Glo Luminescent Cell Viability Reagent (G7572, Promega Corporation, Madison, Wis.) using an EnVision 2101 Mutilabel Reader (Perkin-Elmer, Waltham, Mass.).

[3] = system: In vitro-derived resistant UACC-257X2.2 cells
Experimental: For resistance developed in vitro, UACC-257X2.2 cells were adapted to increasing concentrations of anti-ETBR-vc-MMAE in culture dishes over the course of two months.
as §1

SMILES: CC[C@H](C)[C@@H]([C@@H](CC(=O)N1CCC[C@H]1[C@H](OC)[C@@H](C)C(=O)N[C@H](C)[C@@H](O)c1ccccc1)OC)N(C)C(=O)[C@@H](NC(=O)[C@H](C(C)C)N(C)C(=O)OCc1ccc(NC(=O)[C@H](CCCNC(N)=O)NC(=O)[C@@H](NC(=O)CCCCCN2C(=O)C=CC2=O)C(C)C)cc1)C(C)C [free MC-vc-PAB-MMAE] ({Hexanoyl(6-maleimido)}-V[Cit][PABC][NMeV]V[Dil][Dolaproine]-X1)
- EC50 [1]: 0.28 nM
- EC50 [2]: 0.77 nM
- EC50 [3]: 3.5 nM

Reference: patent US9464141B2, “Anti-ETBR antibodies and immunoconjugates” (Genentech, Inc., priority 2012, dated 2016)
